Each structure is given as a SMILES string. Counter-ions that a name gives are not always drawn.

The target of the experiment is T1, histamine H3 receptor (Homo sapiens, UniProt Q9Y5N1).
T1 construct: expressed in transfected cells; host or cells: CHO K1 cells carrying pSwitch, transfected with pGeneH3 and induced with mifepristone; clone 3H3; membranes
T1 sequence (Q9Y5N1 whole entry): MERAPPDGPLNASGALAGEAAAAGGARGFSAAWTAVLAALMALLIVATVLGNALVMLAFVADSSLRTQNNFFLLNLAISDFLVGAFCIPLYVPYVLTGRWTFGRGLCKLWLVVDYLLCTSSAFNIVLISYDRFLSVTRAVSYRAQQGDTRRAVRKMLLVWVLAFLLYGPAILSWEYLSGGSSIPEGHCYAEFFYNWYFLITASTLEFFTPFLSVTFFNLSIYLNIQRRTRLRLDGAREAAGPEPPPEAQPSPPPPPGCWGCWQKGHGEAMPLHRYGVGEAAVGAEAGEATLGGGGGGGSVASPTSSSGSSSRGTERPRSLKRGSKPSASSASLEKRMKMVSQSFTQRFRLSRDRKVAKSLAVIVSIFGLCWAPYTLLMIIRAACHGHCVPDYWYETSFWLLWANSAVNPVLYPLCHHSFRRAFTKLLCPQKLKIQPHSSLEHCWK
Nature of the experiment: Histamine H3 functional antagonist assay ([35S]GTPγS SPA, membranes of CHO K1 cells expressing human H3). It is filed as biochemical. Particulars: functional antagonism of histamine (0.3 μM) stimulated [35S]GTPγS binding, membranes of CHO K1 cells with human histamine H3. The protocol: A membrane preparation containing histamine H3 receptors may be prepared in accordance with the following procedures:
Ligated DNA was transformed into competent DH5α E. coli host bacterial cells and plated onto Luria Broth (LB) agar containing Zeocin™ (an antibiotic which allows the selection of cells expressing the sh ble gene which is present on pGene and pSwitch) at 50 μg ml^−1. Colonies containing the re-ligated plasmid were identified by restriction analysis. DNA for transfection into mammalian cells was prepared from 250 ml cultures of the host bacterium containing the pGeneH3 plasmid and isolated using a DNA preparation kit (Qiagen Midi-Prep) as per manufacturers guidelines (Qiagen).
CHO K1 cells previously transfected with the pSwitch regulatory plasmid (InVitrogen) were seeded at 2×10e6 cells per T75 flask in Complete Medium, containing Hams F12 (GIBCOBRL, Life Technologies) medium supplemented with 10% v/v dialysed foetal bovine serum, L-glutamine, and hygromycin (100 μg ml^−1), 24 hours prior to use. Plasmid DNA was transfected into the cells using Lipofectamine plus according to the manufacturers guidelines (InVitrogen). 48 hours post transfection cells were placed into complete medium supplemented with 500 μg ml^−1 Zeocin™.
10-14 days post selection 10 nM Mifepristone (InVitrogen), was added to the culture medium to induce the expression of the receptor. […] Approximately 1×10e7 cells were examined for receptor expression by staining with a rabbit polyclonal antibody, 4a, raised against the N-terminal domain of the histamine H3 receptor, incubated on ice for 60 minutes, followed by two washes in sorting medium. […] Following two further washes with Sorting Medium, cells were filtered through a 50 μm Filcon™ (BD Biosciences) and then analysed on a FACS Vantage SE Flow Cytometer fitted with an Automatic Cell Deposition Unit. […] Positively stained cells were sorted as single cells into 96-well plates, containing Complete Medium containing 500 μg ml^−1 Zeocin™ and allowed to expand before reanalysis for receptor expression via antibody and ligand binding studies.
All steps of the protocol are carried out at 4° C. and with pre-cooled reagents. The cell pellet is resuspended in 10 volumes of buffer A2 containing 50 mM N-2-hydroxyethylpiperazine-N′-2-ethanesulfonic acid (HEPES)(pH 7.40) supplemented with 10e−4M leupeptin (acetyl-leucyl-leucyl-arginal; Sigma L2884), 25 μg/ml bacitracin (Sigma B0125), 1 mM ethylenediamine tetra-acetic acid (EDTA), 1 mM phenylmethylsulfonyl fluoride (PMSF) and 2×10e−6M pepstain A (Sigma). The cells are then homogenised by 2×15 second bursts in a 1 litre glass Waring blender, followed by centrifugation at 500 g for 20 minutes. The supernatant is then spun at 48,000 g.for 30 minutes. The pellet is resuspended in 4 volumes of buffer A2 by vortexing for 5 seconds, followed by homogenisation in a Dounce homogeniser (10-15 strokes). At this point the preparation is aliquoted into polypropylene tubes and stored at −70° C. […]
The plate is then incubated on a shaker at room temperature for 30 minutes followed by centrifugation for 5 minutes at 1500 rpm. The plate is read between 3 and 6 hours after completion of centrifuge run in a Wallac Microbeta counter on a 1 minute normalised tritium count protocol. Data is analysed using a 4-parameter logistic equation. Basal activity used as minimum i.e. histamine not added to well.
In general terms: Binding of GTPγS marks nucleotide exchange on a G protein.
In general, Kb refers to the equilibrium dissociation constant of an antagonist, usually derived from a functional assay. For the molecule `CC(C)N1CCN(C(=O)C2CCN(c3ccc(C#N)cn3)CC2)CC1` [Example E1, 1-Isopropyl-4-[1-(5-cyano-pyridin-2-yl)-piperidine4-carbonyl]-piperazine hydrochloride], the Kb is less than 3.16 nM. In turn, `CC(C)N1CCN(C(=O)C2CCN(c3ccc(C#N)cc3)CC2)CC1` [Example E2, 1-Isopropyl-4-[1-(4-cyanophenyl)-piperidine-4-carbonyl]-piperazine hydrochloride] showed a Kb of less than 1 nM. The same measure for `COC(=O)c1cnc(N2CCC(C(=O)N3CCN(C(C)C)CC3)CC2)cc1C(F)(F)F` [Example E4, 1-Isopropyl-4-[1-(5-methoxycarbonyl-4-trifluoromethylpyridin-2-yl)-piperidine-4-carbonyl]-piperazine]: less than 3.16 nM; for `CCOC(=O)c1ccc(N2CCC(C(=O)N3CCN(C(C)C)CC3)CC2)cc1` [Example E8, 1-Isopropyl-4-[1-(4ethoxycarbonylphenyl)-piperidine-4-carbonyl]-piperazine]: less than 3.16 nM. The same measure for `N#Cc1ccc(N2CCC(C(=O)N3CCN(C4CCC4)CC3)CC2)cc1` [Example E9, 1-Cyclobutyl-4-[1-(4-cyanophenyl)-piperidine-4-carbonyl]-piperazine]: less than 3.16 nM. The molecule `N#Cc1ccc(N2CCC(C(=O)N3CCN(C4CCC4)CC3)CC2)cc1F` [Example E10, 1-Cyclobutyl-4-[1-(4-cyano-3-fluorophenyl)-piperidine-4-carbonyl]-piperazine] had a Kb of less than 3.16 nM. The same measure for `N#Cc1cc(F)c(N2CCC(C(=O)N3CCN(C4CCC4)CC3)CC2)c(F)c1` [Example E11, 1-Cyclobutyl4-[1-(4-cyano-2,6-difluorophenyl)-piperidine-4-carbonyl]-piperazine]: less than 3.16 nM.

The molecule `N#Cc1ccc(N2CCC(C(=O)N3CCN(C4CCC4)CC3)CC2)cc1C(F)(F)F` [Example E12, 1-Cyclobutyl-4-[1-(4-cyano-3-trifluoromethylphenyl)-piperidine-4-carbonyl]-piperazine] showed a Kb of less than 3.16 nM. The same measure for `N#Cc1ccc(N2CCC(C(=O)N3CCN(C4CCC4)CC3)CC2)c2ccccc12` [Example E13, 1-Cyclobutyl-4-[1-(4-cyano-naphthalen-1-yl)-piperidine-4-carbonyl]-piperazine]: less than 3.16 nM; for `N#Cc1ccc(N2CCC(C(=O)N3CCN(C4CCC4)CC3)CC2)nc1` [Example E14, 1-Cyclobutyl-4-[1-(5-cyanopyridin-2-yl)-piperidine-4-carbonyl]-piperazine]: less than 3.16 nM. The same measure for `O=C(C1CCN(c2cccc(C(F)(F)F)n2)CC1)N1CCN(C2CCC2)CC1` [Example E15, 1-Cyclobutyl-4-[1-(6-trifluoromethylpyridin-2-yl)-piperidine-4-carbonyl]-piperazine]: less than 3.16 nM; for `O=C(C1CCN(c2ccc(C(F)(F)F)cn2)CC1)N1CCN(C2CCC2)CC1` [Example E16, 1-Cyclobutyl-4-[1-(5-trifluoromethylpyridin-2-yl)-piperidine-4-carbonyl]-piperazine]: less than 3.16 nM; for `O=C(C1CCN(c2ncc(C(F)(F)F)cc2Cl)CC1)N1CCN(C2CCC2)CC1` [Example E17, 1-Cyclobutyl-4-[1-(3-chloro-5-trifluoromethylpyridin-2-yl)-piperidine-4-carbonyl]-piperazine]: less than 3.16 nM. The same measure for `CC(C)N1CCN(C(=O)C2CCN(c3ncc(-c4ccc(S(C)(=O)=O)cc4)cn3)CC2)CC1` [Example E25, 1-Isopropyl-4-{1-[5-(4-methylsulfonylphenyl)-pyrimidin-2-yl]-piperidine-4-carbonyl}-piperazine]: less than 3.16 nM. On to `CC(C)N1CCN(C(=O)C2CCN(c3ccc(C(=O)N4CCOCC4)cc3)CC2)CC1` [Example E30, 1-Isopropyl-4-{1-[4-(morpholino-carbonyl)-phenyl]-piperidine-4-carbonyl}-piperazine hydrochloride], for which the Kb is less than 3.16 nM.

`N#Cc1ccc(N2CCC(C(=O)N3CCN(C4CCCC4)CC3)CC2)cc1` [Example E31, 1-Cyclopentyl-4-[1-(4cyano-phenyl)-piperidine-4-carbonyl]-piperazine hydrochloride] had a Kb of less than 3.16 nM. Molecule `C[C@@H]1CN(C(=O)C2CCN(c3ccc(C#N)cc3)CC2)C[C@H](C)N1C1CCC1` [Example E33, (2R,6S)-1-Cyclobutyl-4-[1-(4-cyanophenyl)-piperidine-4-carbonyl]-2,6-dimethylpiperazine hydrochloride] gave a Kb of less than 3.16 nM.

On to `N#Cc1ccc(N2CCC(C(=O)N3CCCN(C4CCC4)CC3)CC2)cc1` [Example E36, 1-Cyclobutyl-4-[1-(4-cyanophenyl)-piperidine4-carbonyl]-[1,4]-diazepane], for which the antagonist equilibrium constant (Kb) was less than 1 nM. For `N#Cc1ccc(N2CCC(C(=O)N3CCCN(C4CCC4)CC3)CC2)nc1` [Example E37, 1-Cyclobutyl-4-[1-(5-cyanopyridin-2-yl)-piperidine4-carbonyl]-[1,4]-diazepane], the Kb is less than 1 nM.

Molecule `CC(C)N1CCCN(C(=O)C2CCN(c3ccc(C#N)cc3)CC2)CC1` [Example E38, 1-Isopropyl-4-[1-(4-cyanophenyl)-piperidine4-carbonyl]-[1,4]-diazepane] gave an antagonist equilibrium constant (Kb) of less than 1 nM. The same measure for `CC(C)N1CCCN(C(=O)C2CCN(c3cc(F)c(C#N)cc3F)CC2)CC1` [Example E39, 1-Isopropyl-4-[1-(4-cyano-2,5-difluorophenyl)-piperidine-4-carbonyl]-[1,4]-diazepane]: less than 3.16 nM. The same measure for `CC(C)N1CCCN(C(=O)C2CCN(c3ccc(C#N)c(Cl)c3)CC2)CC1` [Example E40, 1-Isopropyl-4-[1-(4-cyano-3-chlorophenyl)-piperidine-4-carbonyl]-[1,4]-diazepane]: less than 3.16 nM; for `CC(C)N1CCCN(C(=O)C2CCN(c3ccc(C#N)c(F)c3)CC2)CC1` [Example E41, 1-Isopropyl-4-[1-(4-cyano-3-fluoro-phenyl)-piperidine4-carbonyl]-[1,4]-diazepane]: less than 3.16 nM. The same measure for `CC(C)N1CCCN(C(=O)C2CCN(c3c(F)cc(C#N)cc3F)CC2)CC1` [Example E42, 1-Isopropyl-4-[1-(4-cyano-2,6-difluoro-phenyl)-piperidine-4-carbonyl]-[1,4]-diazepane]: less than 3.16 nM; for `CC(C)N1CCCN(C(=O)C2CCN(c3ccc(C#N)cc3F)CC2)CC1` [Example E43, 1-Isopropyl-4-[1-(4-cyano-2-fluoro-phenyl)-piperidine-4-carbonyl]-[1,4]-diazepane]: less than 3.16 nM; for `CC(C)N1CCCN(C(=O)C2CCN(c3ccc(C#N)c(C(F)(F)F)c3)CC2)CC1` [Example E44, 1-Isopropyl4-[1-(4-cyano-3-trifluoromethyl-phenyl)-piperidine-4-carbonyl]-[1,4]-diazepane]: less than 3.16 nM. In turn, `CC(C)N1CCCN(C(=O)C2CCN(c3ccc(C(F)(F)F)cc3)CC2)CC1` [Example E45, 1-Isopropyl-4-[1-(4-trifluoromethyl-phenyl)-piperidine-4-carbonyl]-[1,4]-diazepane] showed a Kb of less than 3.16 nM.

On to `CC(C)N1CCCN(C(=O)C2CCN(c3ccc(C#N)c4ccccc34)CC2)CC1` [Example E46, 1-Isopropyl-4-[1-(4-cyano-naphthalen-1-yl)-piperidine-4-carbonyl]-[1,4]-diazepane], for which the antagonist dissociation constant (Kb) was less than 3.16 nM.

The values above are taken from patent publication US7592347B2, “Piperazine derivates and their use for the treatment of neurological and psychiatric diseases” (Glaxo Group Limited, priority 2003, dated 2009).
